Measurements taken from PubChem BioAssay (NCI).
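Protocol summary: plate cells (96-well), add compound at 5 concentrations, incubate 48 h, interpolate endpoints linearly. Here, GI50 denotes the concentration required for 50% inhibition of growth. At the TGI there is no net growth.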

Experiments:
Test in all cases: DTP human tumour cell line panel, 48 h
A549 NSCLC = test system: A549 NSCLC
HCT-116 colon = test system: HCT-116 colon
HL-60(TB) leukemia = test system: HL-60(TB) leukemia
HOP-92 NSCLC = test system: HOP-92 NSCLC
HS 578T breast = test system: HS 578T breast
IGROV1 ovarian = test system: IGROV1 ovarian
K-562 leukemia = test system: K-562 leukemia
KM12 colon = test system: KM12 colon
SF-268 CNS = test system: SF-268 CNS
SF-539 CNS = test system: SF-539 CNS

## Nc1c(C(=O)Nc2cccc3ccccc23)sc2nc3c(cc12)CCCCCC3
A549 NSCLC
  GI50: 2.54 µM
  TGI: > 50 µM
HCT-116 colon
  GI50: 1.72 µM
  TGI: > 50 µM
HL-60(TB) leukemia
  GI50: 1.65 µM
  TGI: > 50 µM
HOP-92 NSCLC
  GI50: 6.58 µM
  TGI: > 50 µM
HS 578T breast
  GI50: 1.59 µM
  TGI: > 50 µM
IGROV1 ovarian
  GI50: 2.31 µM
  TGI: > 50 µM
K-562 leukemia
  GI50: 0.301 µM
  TGI: > 50 µM
KM12 colon
  GI50: 1.39 µM
  TGI: > 50 µM
SF-268 CNS
  GI50: 2.77 µM
  TGI: > 50 µM
SF-539 CNS
  GI50: 1.24 µM
  TGI: > 50 µM

## COc1ccc(S(=O)(=O)Nc2c(/C=C\c3cc(OC)c(OC)c(OC)c3)ccc(OC)c2O)cc1OC
A549 NSCLC
  GI50: 0.403 µM
  TGI: > 100 µM
HCT-116 colon
  GI50: 0.171 µM
  TGI: > 100 µM
HL-60(TB) leukemia
  GI50: 0.338 µM
  TGI: > 100 µM
HOP-92 NSCLC
  GI50: 0.0801 µM
  TGI: > 100 µM
HS 578T breast
  GI50: 0.251 µM
  TGI: > 100 µM
IGROV1 ovarian
  GI50: 0.358 µM
  TGI: > 100 µM
K-562 leukemia
  GI50: 0.0927 µM
  TGI: > 100 µM
KM12 colon
  GI50: 0.091 µM
  TGI: > 100 µM
SF-268 CNS
  GI50: 1.29 µM
  TGI: > 100 µM
SF-539 CNS
  GI50: 0.0856 µM
  TGI: 0.457 µM

## Nc1c2c(c(O)c3c1=C(CO)C=N3)=NCCS2=O (stereo not given)
A549 NSCLC
  GI50: 1.72 µM
  TGI: 3.55 µM
HCT-116 colon
  GI50: 2.25 µM
  TGI: 4.95 µM
HL-60(TB) leukemia
  GI50: 1.94 µM
  TGI: 4.5 µM
HOP-92 NSCLC
  GI50: 2.67 µM
  TGI: 5.46 µM
HS 578T breast
  GI50: 2.78 µM
  TGI: 7.9 µM
IGROV1 ovarian
  GI50: 1.9 µM
  TGI: 4.29 µM
K-562 leukemia
  GI50: 2.81 µM
  TGI: 8.07 µM
KM12 colon
  GI50: 1.7 µM
  TGI: 10.6 µM
SF-268 CNS
  GI50: 1.24 µM
  TGI: 3.27 µM
SF-539 CNS
  GI50: 1.65 µM
  TGI: 3.06 µM

## CCc1cc(Cc2cc(CC)cc(C(C)(C)C)c2O)c(O)c(C(C)(C)C)c1
A549 NSCLC
  GI50: 3.18 µM
  TGI: 13.2 µM
HCT-116 colon
  GI50: 2.09 µM
  TGI: 5.82 µM
HL-60(TB) leukemia
  GI50: 4.42 µM
  TGI: > 100 µM
HOP-92 NSCLC
  GI50: 2.25 µM
  TGI: 7.97 µM
HS 578T breast
  GI50: 2.59 µM
  TGI: 8.29 µM
IGROV1 ovarian
  GI50: 2.53 µM
  TGI: 8.05 µM
K-562 leukemia
  GI50: 3.37 µM
  TGI: 13.9 µM
KM12 colon
  GI50: 2.28 µM
  TGI: 6.35 µM
SF-268 CNS
  GI50: 3.4 µM
  TGI: 12.6 µM
SF-539 CNS
  GI50: 2.51 µM
  TGI: 5.98 µM

## Cc1cnc2n(c1=O)Cc1ccccc1CO2
A549 NSCLC
  GI50: 28.7 µM
  TGI: > 100 µM
HCT-116 colon
  GI50: 17.2 µM
  TGI: 43.8 µM
HL-60(TB) leukemia
  GI50: 15.5 µM
  TGI: 35.1 µM
HOP-92 NSCLC
  GI50: 19.3 µM
  TGI: 44.3 µM
HS 578T breast
  GI50: 23.9 µM
  TGI: > 100 µM
IGROV1 ovarian
  GI50: 14.4 µM
  TGI: 32.5 µM
K-562 leukemia
  GI50: 18.7 µM
  TGI: 48.3 µM
KM12 colon
  GI50: 18 µM
  TGI: 34.3 µM
SF-268 CNS
  GI50: 20.3 µM
  TGI: 67.6 µM
SF-539 CNS
  GI50: 24 µM
  TGI: 60 µM

## COc1ccc(/C=C/c2cnnc3ccccc23)cc1OC
A549 NSCLC
  TGI: > 10 µM
HCT-116 colon
  TGI: > 10 µM
HL-60(TB) leukemia
  TGI: > 10 µM
HOP-92 NSCLC
  TGI: > 10 µM
HS 578T breast
  TGI: > 10 µM
IGROV1 ovarian
  TGI: > 10 µM
K-562 leukemia
  TGI: > 10 µM
KM12 colon
  TGI: > 10 µM
SF-268 CNS
  TGI: > 10 µM
SF-539 CNS
  TGI: > 10 µM

## Nc1c(S(=O)(=O)O)cc2c(c1Cl)C(=O)c1ccccc1C2=O
A549 NSCLC
  GI50: > 100 µM
  TGI: > 100 µM
HCT-116 colon
  GI50: > 100 µM
  TGI: > 100 µM
HL-60(TB) leukemia
  GI50: > 100 µM
  TGI: > 100 µM
HOP-92 NSCLC
  GI50: > 100 µM
  TGI: > 100 µM
HS 578T breast
  GI50: > 100 µM
  TGI: > 100 µM
IGROV1 ovarian
  GI50: > 100 µM
  TGI: > 100 µM
K-562 leukemia
  GI50: > 100 µM
  TGI: > 100 µM
KM12 colon
  GI50: > 100 µM
  TGI: > 100 µM
SF-268 CNS
  GI50: > 100 µM
  TGI: > 100 µM
SF-539 CNS
  GI50: > 100 µM
  TGI: > 100 µM

## COc1ccc(/C=C2\CCC(CN(C)C)C2=O)cc1 (stereo not given)
A549 NSCLC
  TGI: 30.6 µM
HCT-116 colon
  TGI: 8.27 µM
HL-60(TB) leukemia
  TGI: 4.23 µM
HOP-92 NSCLC
  TGI: 28.2 µM
HS 578T breast
  TGI: > 100 µM
IGROV1 ovarian
  TGI: 18.4 µM
K-562 leukemia
  TGI: 7.25 µM
KM12 colon
  TGI: 22.1 µM
SF-268 CNS
  TGI: 19.1 µM
SF-539 CNS
  TGI: 16 µM

## O=P1(NCCCl)OCCC(OO)N1CCCl (stereo not given)
A549 NSCLC
  TGI: > 100 µM
HCT-116 colon
  TGI: 33.6 µM
HL-60(TB) leukemia
  TGI: > 51.9 µM
HOP-92 NSCLC
  TGI: 33.4 µM
HS 578T breast
  TGI: > 100 µM
IGROV1 ovarian
  TGI: > 100 µM
K-562 leukemia
  TGI: > 64 µM
KM12 colon
  TGI: > 100 µM
SF-268 CNS
  TGI: > 100 µM
SF-539 CNS
  TGI: 33 µM

## COc1cc(Nc2nccc(-c3cnn4ncccc34)n2)cc(OC)c1
A549 NSCLC
  GI50: 0.119 µM
  TGI: 5.67 µM
HCT-116 colon
  GI50: 0.0439 µM
  TGI: > 14.9 µM
HL-60(TB) leukemia
  GI50: 0.0362 µM
  TGI: 0.12 µM
HOP-92 NSCLC
  GI50: 0.0317 µM
  TGI: 0.151 µM
HS 578T breast
  GI50: 0.096 µM
  TGI: > 5.62 µM
IGROV1 ovarian
  GI50: 0.0916 µM
  TGI: > 23.9 µM
K-562 leukemia
  GI50: 0.115 µM
  TGI: > 25 µM
KM12 colon
  GI50: 0.0349 µM
  TGI: 0.272 µM
SF-268 CNS
  GI50: 0.0697 µM
  TGI: 0.48 µM
SF-539 CNS
  GI50: 0.0637 µM
  TGI: 0.257 µM

## COc1ccc2nc3c(cc2c1)C(=O)CC(C(F)(F)F)C3 (stereo not given)
A549 NSCLC
  GI50: 2.48 µM
  TGI: > 100 µM
HCT-116 colon
  GI50: 0.142 µM
  TGI: > 100 µM
HL-60(TB) leukemia
  GI50: 0.333 µM
  TGI: > 46.8 µM
HOP-92 NSCLC
  GI50: 2.8 µM
  TGI: 94.2 µM
HS 578T breast
  GI50: 2.19 µM
  TGI: > 100 µM
IGROV1 ovarian
  GI50: 0.792 µM
  TGI: > 100 µM
K-562 leukemia
  GI50: 0.406 µM
  TGI: > 100 µM
KM12 colon
  GI50: 0.351 µM
  TGI: > 100 µM
SF-268 CNS
  GI50: 34.6 µM
  TGI: > 100 µM
SF-539 CNS
  GI50: 1.74 µM
  TGI: 5.64 µM
